Measurements published in patent US20060069132A1, “Azolecarboxamide herbicides” (priority 2004, published 2006).

Tests used:
ducksalad = assay: Test B flooded paddy test; type: in vivo, Heteranthera limosa; conditions: 1000 g ai/ha, scale 0 to 100 (0 no effect, 100 complete control)
Outline: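 Formulated test chemicals went onto postemergence plants measuring 2 to 18 cm, at one to four leaves. For the paddy assay, species had reached two leaves. Scoring took place 13–15 days later by eye, relative to untreated plants, using 0 for no effect up to 100 for full control.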

yellow nutsedge = assay: Test C pre-/postemergence herbicide test; type: in vivo, Cyperus esculentus
Outline: (§1)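 Pre- and postemergence application, solvent/surfactant formulation; post at 1- to 4-leaf stage (2–18 cm). Greenhouse 12–14 d. Visual rating vs controls, 0 = no effect, 100 = complete control.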

large crabgrass = assay: Test C pre-/postemergence herbicide test; type: in vivo, Digitaria sanguinalis
Outline: as §1

lambsquarters = assay: Test C pre-/postemergence herbicide test; type: in vivo, Chenopodium album
Outline: as §1

common ragweed = assay: Test C pre-/postemergence herbicide test; type: in vivo, Ambrosia elatior; design: key to Plant response rating, Ragweed: 0 = no effect, 100 = complete control
Outline: as §1

barnyardgrass = assay: Test B pre-/postemergence herbicide test; type: in vivo, Echinochloa crus-galli; conditions: for Plant response rating (0 to 100 scale), Barnyardgrass / Plant response rating, Barnyardgrass: preemergence
Outline: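 Plants compared with untreated controls 13–15 days post-treatment and given a visual 0–100 injury score. Applications: preemergence to seeds; postemergence at 1- to 4-leaf (2–18 cm); paddy species flooded, 2-leaf stage. Vehicle non-phytotoxic, surfactant included.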

Surinam grass = assay: Test C pre-/postemergence herbicide test; type: in vivo, Urochloa decumbens
Outline: as §1

[1] = 62 g ai/ha, preemergence, scale 0 to 100
[2] = 250 g ai/ha, scale 0-100, preemergence
[3] = 500 g ai/ha, scale 0 to 100 (0 no effect, 100 complete control), visual, 12 to 14 days, preemergence
[4] = 125 g ai/ha, 0 is no effect, 100 is complete control
[5] = 125 g ai/ha, visual rating, scale 0 (no effect) to 100 (complete control), postemergence
[6] = 500 g ai/ha, visual rating, 0 = no effect, 100 = complete control
[7] = postemergence, 500 g ai/ha, scale 0 to 100, 0 is no effect, 100 is complete control
[8] = 125 g ai/ha, scale 0 (no effect) to 100 (complete control), visual, 12 to 14 days, preemergence
[9] = Preemergence, 500 g ai/ha, scale 0 to 100, 0 no effect, 100 complete control
[10] = Postemergence, 500 g ai/ha, scale 0 to 100
[11] = Postemergence, 250 g ai/ha, scale 0 to 100, 0 no effect, 100 complete control
[12] = postemergence, 125 g ai/ha, scale 0 to 100
[13] = postemergence, 62 g ai/ha, scale 0 to 100

CCC1=NN(C(C)(C)C)CC1C(=O)Nc1cc(C(=O)N2CCCC2)ccc1F (racemic) [Compound 341]
Ducksalad plant response rating (ducksalad): 90 | Plant response rating, Nutsedge, Yellow (yellow nutsedge; [1]): 0 | Plant response rating (0 = no effect, 100 = complete control), Nutsedge, Yellow (yellow nutsedge; 125 g ai/ha, preemergence): 0 | Plant response rating, Nutsedge, Yellow (yellow nutsedge; [2]): 30 | Plant response rating, Nutsedge, Yellow (yellow nutsedge; [3]): 60 | Plant response rating, Crabgrass, Large (large crabgrass; [1]): 50 | Plant response rating (0 = no effect, 100 = complete control), Crabgrass, Large (large crabgrass; 125 g ai/ha, preemergence): 80 | Plant response rating, Crabgrass, Large (large crabgrass; [2]): 90 | Plant response rating, Crabgrass, Large (large crabgrass; [3]): 100 | Plant response rating, Lambsquarters (lambsquarters; [1]): 100 | Plant response rating (0 = no effect, 100 = complete control), Lambsquarters (lambsquarters; 125 g ai/ha, preemergence): 100 | Plant response rating, Lambsquarters (lambsquarters; [2]): 100 | Plant response rating, Lambsquarters (lambsquarters; [3]): 100 | Plant response rating, Ragweed (common ragweed; [1]): 50 | Plant response rating (0 = no effect, 100 = complete control), Ragweed (common ragweed; 125 g ai/ha, preemergence): 100 | Plant response rating, Ragweed (common ragweed; [2]): 100 | Plant response rating, Ragweed (common ragweed; [3]): 100 | Plant response rating (0 to 100 scale), Barnyardgrass (barnyardgrass; [4]): 80 | Barnyardgrass plant response rating (barnyardgrass; [5]): 10 | Plant response rating, Barnyardgrass (barnyardgrass; [6]): 100 | Barnyardgrass plant response rating (barnyardgrass; [7]): 20 | Plant response rating, Surinam Grass (Surinam grass; [1]): 60 | Plant response rating (0 = no effect, 100 = complete control), Surinam Grass (Surinam grass; 125 g ai/ha, preemergence): 95 | Plant response rating, Surinam Grass (Surinam grass; [2]): 100 | Plant response rating, Surinam Grass (Surinam grass; [3]): 100

CCn1nc(C(C)(C)C)cc1C(=O)Nc1cc(C#N)ccc1F [Compound 140]
Ducksalad plant response rating (ducksalad; visual rating, 13 to 15 days): 80 | Plant response rating (0 = no effect, 100 = complete control), Nutsedge, Yellow (yellow nutsedge; 62 g ai/ha, preemergence): 0 | Plant response rating, Nutsedge, Yellow (yellow nutsedge; [8]): 0 | Nutsedge, Yellow plant response rating (yellow nutsedge; [9]): 0 | Plant response rating (0 = no effect, 100 = complete control), Crabgrass, Large (large crabgrass; 62 g ai/ha, preemergence): 0 | Plant response rating, Crabgrass, Large (large crabgrass; [8]): 65 | Plant response rating, Crabgrass, Large (large crabgrass; 250 g ai/ha, scale 0 to 100 (0 no effect, 100 complete control), visual, 12 to 14 days, preemergence): 75 | Crabgrass, Large plant response rating (large crabgrass; [9]): 100 | Plant response rating (0 = no effect, 100 = complete control), Lambsquarters (lambsquarters; 62 g ai/ha, preemergence): 75 | Plant response rating, Lambsquarters (lambsquarters; [8]): 85 | Lambsquarters plant response rating (lambsquarters; [9]): 100 | Plant response rating (0 = no effect, 100 = complete control), Ragweed (common ragweed; 62 g ai/ha, preemergence): 0 | Plant response rating, Ragweed (common ragweed; [8]): 0 | Ragweed plant response rating (common ragweed; [9]): 95 | Plant response rating, Barnyardgrass (barnyardgrass; 500 g ai/ha, visual rating 0-100, 0 no effect, 100 complete control): 80 | Barnyardgrass plant response rating (barnyardgrass; postemergence, 125 g ai/ha, visual rating, scale 0 (no effect) to 100 (complete control)): 0 | Barnyardgrass plant response rating (barnyardgrass; postemergence, 500 g ai/ha, visual rating, scale 0 (no effect) to 100 (complete control)): 0 | Plant response rating, Barnyardgrass (barnyardgrass; 125 g ai/ha, 0 to 100 scale, 0 is no effect, 100 is complete control): 20 | Plant response rating (0 = no effect, 100 = complete control), Surinam Grass (Surinam grass; 62 g ai/ha, preemergence): 0 | Plant response rating, Surinam Grass (Surinam grass; [8]): 0 | Surinam Grass plant response rating (Surinam grass; [9]): 70

Cc1nn(C(C)(C)C)nc1C(=O)Nc1cccc(C(=O)N(C)C)c1 [Compound 391]
Ducksalad plant response rating (ducksalad): 90 | Plant response rating, Nutsedge, Yellow (yellow nutsedge; [1]): 5 | Plant response rating (0 = no effect, 100 = complete control), Nutsedge, Yellow (yellow nutsedge; 125 g ai/ha, preemergence): 70 | Plant response rating, Nutsedge, Yellow (yellow nutsedge; [2]): 90 | Plant response rating, Nutsedge, Yellow (yellow nutsedge; [3]): 90 | Plant response rating, Crabgrass, Large (large crabgrass; [1]): 98 | Plant response rating (0 = no effect, 100 = complete control), Crabgrass, Large (large crabgrass; 125 g ai/ha, preemergence): 100 | Plant response rating, Crabgrass, Large (large crabgrass; [2]): 100 | Plant response rating, Crabgrass, Large (large crabgrass; [3]): 100 | Plant response rating, Lambsquarters (lambsquarters; [1]): 100 | Plant response rating (0 = no effect, 100 = complete control), Lambsquarters (lambsquarters; 125 g ai/ha, preemergence): 100 | Plant response rating, Lambsquarters (lambsquarters; [2]): 100 | Plant response rating, Lambsquarters (lambsquarters; [3]): 100 | Plant response rating, Ragweed (common ragweed; [1]): 85 | Plant response rating (0 = no effect, 100 = complete control), Ragweed (common ragweed; 125 g ai/ha, preemergence): 100 | Plant response rating, Ragweed (common ragweed; [2]): 100 | Plant response rating, Ragweed (common ragweed; [3]): 100 | Plant response rating (0 to 100 scale), Barnyardgrass (barnyardgrass; [4]): 100 | Barnyardgrass plant response rating (barnyardgrass; [5]): 10 | Barnyardgrass plant response rating (barnyardgrass; Postemergence, 500 g ai/ha, scale 0 (no effect) to 100 (complete control)): 30 | Plant response rating, Surinam Grass (Surinam grass; [1]): 85 | Plant response rating (0 = no effect, 100 = complete control), Surinam Grass (Surinam grass; 125 g ai/ha, preemergence): 95 | Plant response rating, Surinam Grass (Surinam grass; [2]): 95 | Plant response rating, Surinam Grass (Surinam grass; [3]): 95

CCn1nc(C(C)(C)C)cc1C(=O)Nc1cccc(OC(F)(F)C(F)F)c1 [Compound 333]
Ducksalad plant response rating (ducksalad): 80 | Plant response rating, Nutsedge, Yellow (yellow nutsedge; [1]): 0 | Plant response rating, Nutsedge, Yellow (yellow nutsedge; [8]): 0 | Plant response rating, Nutsedge, Yellow (yellow nutsedge; [2]): 0 | Plant response rating, Nutsedge, Yellow (yellow nutsedge; [3]): 0 | Nutsedge, Yellow plant response rating (yellow nutsedge; [10]): 0 | Plant response rating, Nutsedge, Yellow (yellow nutsedge; [11]): 0 | Plant response rating, Nutsedge, Yellow (yellow nutsedge; [12]): 0 | Plant response rating, Nutsedge, Yellow (yellow nutsedge; [13]): 0 | Plant response rating, Crabgrass, Large (large crabgrass; [1]): 20 | Plant response rating, Crabgrass, Large (large crabgrass; [8]): 70 | Plant response rating, Crabgrass, Large (large crabgrass; [2]): 100 | Plant response rating, Crabgrass, Large (large crabgrass; [3]): 100 | Crabgrass, Large plant response rating (large crabgrass; [10]): 10 | Plant response rating, Crabgrass, Large (large crabgrass; [11]): 5 | Plant response rating, Crabgrass, Large (large crabgrass; [12]): 5 | Plant response rating, Crabgrass, Large (large crabgrass; [13]): 0 | Plant response rating, Lambsquarters (lambsquarters; [1]): 95 | Plant response rating, Lambsquarters (lambsquarters; [8]): 100 | Plant response rating, Lambsquarters (lambsquarters; [2]): 100 | Plant response rating, Lambsquarters (lambsquarters; [3]): 100 | Lambsquarters plant response rating (lambsquarters; [10]): 100 | Plant response rating, Lambsquarters (lambsquarters; [11]): 80 | Plant response rating, Lambsquarters (lambsquarters; [12]): 80 | Plant response rating, Lambsquarters (lambsquarters; [13]): 60 | Plant response rating, Ragweed (common ragweed; [1]): 0 | Plant response rating, Ragweed (common ragweed; [2]): 50 | Plant response rating, Ragweed (common ragweed; [3]): 65 | Ragweed plant response rating (common ragweed; [10]): 50 | Plant response rating, Ragweed (common ragweed; [11]): 50 | Plant response rating, Ragweed (common ragweed; [12]): 30 | Plant response rating, Ragweed (common ragweed; [13]): 5 | Plant response rating (0 to 100 scale), Barnyardgrass (barnyardgrass; [4]): 0 | Barnyardgrass plant response rating (barnyardgrass; [5]): 10 | Plant response rating, Barnyardgrass (barnyardgrass; [6]): 20 | Barnyardgrass plant response rating (barnyardgrass; [7]): 40 | Plant response rating, Surinam Grass (Surinam grass; [2]): 5 | Plant response rating, Surinam Grass (Surinam grass; [3]): 20 | Surinam Grass plant response rating (Surinam grass; [10]): 10 | Plant response rating, Surinam Grass (Surinam grass; [11]): 5 | Plant response rating, Surinam Grass (Surinam grass; [12]): 5 | Plant response rating, Surinam Grass (Surinam grass; [13]): 5
